The values that follow come from patent US9371342B2, “Isoprene oligomer, polyisoprene, processes for producing these materials, rubber composition, and pneumatic tire” (priority 2010, dated 2016).

In test [1] the target is T1, variant enzyme F95W of undecaprenyl diphosphate synthase (Micrococcus luteus, UniProt O82827, F95W).
T1 construct: made in house; host or cells: E. coli; site-directed mutagenesis of pET22b/MLU-UPS
The test is described as follows: Relative activity of variant enzyme F95W on initiating substrates. The test is classed as biochemical, Micrococcus luteus B-P 26. To be noted: index, activity of wild-type enzyme on same initiating substrate as 100; 12.5 μM initiating substrate, 1 hour, 37° C. The procedure:
(§1) Reaction was performed under conditions shown below using each of the initiating substrates prepared in Production Examples 1 to 11 or farnesyl diphosphate. The activity of each variant enzyme on each initiating substrate was indicated by index with the activity of the wild-type enzyme (Micrococcus luteus B-P 26-derived undecaprenyl diphosphate synthase) as 100.
(§2) After the reaction, liquid scintillation counting and TLC quantification were performed to measure the activity of each enzyme.

Test [2] has as its target T2, variant enzyme F95A of undecaprenyl diphosphate synthase (Micrococcus luteus, UniProt O82827, F95A).
T2 construct: made in house; host or cells: E. coli; site-directed mutagenesis of pET22b/MLU-UPS
The test is described as follows: Relative activity of variant enzyme F95A on initiating substrates. It counts as biochemical, Micrococcus luteus B-P 26. Conditions: index, activity of wild-type enzyme on same initiating substrate as 100; 12.5 μM initiating substrate, 1 hour, 37° C. The procedure: as §1, §2

Test [3] deals with T3, Micrococcus luteus B-P 26-derived undecaprenyl diphosphate synthase (wild-type enzyme) (Micrococcus luteus, UniProt O82827).
T3 construct: made in house; host or cells: E. coli; plasmid pET22b/MLU-UPS
The experiment in a line: Relative activity of wild-type undecaprenyl diphosphate synthase on initiating substrates. The test is classed as biochemical. To be noted: activity of the enzyme on farnesyl diphosphate as 100; 12.5 μM initiating substrate, pH 7.5, 1 hour, 37° C. The procedure: as §1, §2
Next, reaction was performed under conditions shown below using Micrococcus luteus B-P 26-derived undecaprenyl diphosphate synthase as an enzyme and each of the initiating substrates 1 to 4, the compound represented by the formula (B), the compound represented by the formula (C), the compound represented by the formula (G), the compound represented by the formula (K), and farnesyl diphosphate (FPP). The results were indicated in Table 10 by the relative activity of the enzyme on the initiating substrates 1 to 4, the compound represented by the formula (B), the compound represented by the formula (C), the compound represented by the formula (G), and the compound represented by the formula (K) with the activity of the enzyme on farnesyl diphosphate as 100.
(§3) After the reaction, liquid scintillation counting and TLC quantification were performed to measure the activity of the enzyme on each initiating substrate.

In test [4] the target is T4, Sulfolobus acidocaldarius-derived geranylgeranyl diphosphate synthase (Sulfolobus acidocaldarius, UniProt P39464).
T4 construct: made in house; host or cells: E. coli BL21 (DE3)
The experiment in a line: Relative activity of geranylgeranyl diphosphate synthase on initiating substrates. It counts as biochemical. Conditions: 12.5 μM initiating substrate, pH 5.8, 1 hour, 55° C. The procedure:
Likewise, reaction was performed under conditions shown below using Sulfolobus acidocaldarius-derived geranylgeranyl diphosphate synthase and each of the initiating substrates 1 to 4, the compound represented by the formula (B), the compound represented by the formula (C), the compound represented by the formula (G), the compound represented by the formula (K), the compound represented by the formula (F), the compound represented by the formula (I), the compound represented by the formula (Q), farnesyl diphosphate (FPP), and geranyl diphosphate (GPP). The results were indicated in Tables 12 and 13 by the relative activity of the enzyme on the initiating substrates 1 to 4, the compound represented by the formula (B), the compound represented by the formula (C), the compound represented by the formula (G), the compound represented by the formula (K), the compound represented by the formula (F), the compound represented by the formula (I), and the compound represented by the formula (QO) with the activity of the enzyme on farnesyl diphosphate or geranyl diphosphate as 100.
as §3

The target of test [5] is T5, variant enzyme L91K of undecaprenyl diphosphate synthase (Micrococcus luteus, UniProt O82827, L91K).
T5 construct: made in house; host or cells: E. coli; site-directed mutagenesis of pET22b/MLU-UPS
The test is described as follows: Relative activity of variant enzyme L91K on initiating substrates. It counts as biochemical, Micrococcus luteus B-P 26. Conditions: index, activity of wild-type enzyme on same initiating substrate as 100; 12.5 μM initiating substrate, 1 hour, 37° C. The procedure:
as §1, §2

Test [6] concerns the target T6, variant enzyme N77A of undecaprenyl diphosphate synthase (Micrococcus luteus, UniProt O82827, N77A).
T6 construct: made in house; host or cells: E. coli; site-directed mutagenesis of pET22b/MLU-UPS
The test is described as follows: Relative activity of variant enzyme N77A on initiating substrates. The test is classed as biochemical, Micrococcus luteus B-P 26. Conditions: index, activity of wild-type enzyme on same initiating substrate as 100; 12.5 μM initiating substrate, 1 hour, 37° C. The procedure: as §1, §2

The target of test [7] is T7, variant enzyme L91G of undecaprenyl diphosphate synthase (Micrococcus luteus, UniProt O82827, L91G).
T7 construct: made in house; host or cells: E. coli; site-directed mutagenesis of pET22b/MLU-UPS
The experiment in a line: Relative activity of variant enzyme L91G on initiating substrates. The test is classed as biochemical, Micrococcus luteus B-P 26. Conditions: index, activity of wild-type enzyme on same initiating substrate as 100; 12.5 μM initiating substrate, 1 hour, 37° C. The procedure: as §1, §2

The target in test [8] is T8, variant enzyme N31A of undecaprenyl diphosphate synthase (Micrococcus luteus, UniProt O82827, N31A).
T8 construct: made in house; host or cells: E. coli; site-directed mutagenesis of pET22b/MLU-UPS
The experiment in a line: Relative activity of variant enzyme N31A on initiating substrates. To be noted: index, activity of wild-type enzyme on same initiating substrate as 100; 12.5 μM initiating substrate, 1 hour, 37° C. The test is classed as biochemical, Micrococcus luteus B-P 26. The procedure:
as §1, §2

Test [9] concerns the target T9, variant enzyme L91D of undecaprenyl diphosphate synthase (Micrococcus luteus, UniProt O82827, L91D).
T9 construct: made in house; host or cells: E. coli; site-directed mutagenesis of pET22b/MLU-UPS
The experiment in a line: Relative activity of variant enzyme L91D on initiating substrates. It counts as biochemical, Micrococcus luteus B-P 26. Conditions: index, activity of wild-type enzyme on same initiating substrate as 100; 12.5 μM initiating substrate, 1 hour, 37° C. The procedure: as §1, §2

The target of test [10] is T10, variant enzyme L91N of undecaprenyl diphosphate synthase (Micrococcus luteus, UniProt O82827, L91N).
T10 construct: made in house; host or cells: E. coli; site-directed mutagenesis of pET22b/MLU-UPS
The test is described as follows: Relative activity of variant enzyme L91N on initiating substrates. It counts as biochemical, Micrococcus luteus B-P 26. To be noted: index, activity of wild-type enzyme on same initiating substrate as 100; 12.5 μM initiating substrate, 1 hour, 37° C. The procedure: as §1, §2

The target of test [11] is T11, variant enzyme N31Q of undecaprenyl diphosphate synthase (Micrococcus luteus, UniProt O82827, N31Q).
T11 construct: made in house; host or cells: E. coli; site-directed mutagenesis of pET22b/MLU-UPS
The experiment in a line: Relative activity of variant enzyme N31Q on initiating substrates. The test is classed as biochemical, Micrococcus luteus B-P 26. Conditions: index, activity of wild-type enzyme on same initiating substrate as 100; 12.5 μM initiating substrate, 1 hour, 37° C. The procedure: as §1, §2

Test [12] concerns the target T12, variant enzyme N77Q of undecaprenyl diphosphate synthase (Micrococcus luteus, UniProt O82827, N77Q).
T12 construct: made in house; host or cells: E. coli; site-directed mutagenesis of pET22b/MLU-UPS
The test is described as follows: Relative activity of variant enzyme N77Q on initiating substrates. The test is classed as biochemical, Micrococcus luteus B-P 26. To be noted: index, activity of wild-type enzyme on same initiating substrate as 100; 12.5 μM initiating substrate, 1 hour, 37° C. The procedure:
as §1, §2

For test [13], the target named is T13, Bacillus stearothermophilus-derived farnesyl diphosphate synthase (Geobacillus stearothermophilus, UniProt Q08291).
T13 construct: made in house; host or cells: E. coli BL21 (DE3)
The test is described as follows: Relative activity of farnesyl diphosphate synthase on initiating substrates. The test is classed as biochemical. To be noted: activity of the enzyme on geranyl diphosphate as 100; 12.5 μM initiating substrate, pH 8.5, 1 hour, 55° C. The procedure:
Reaction was performed under conditions shown below using the obtained Bacillus stearothermophilus-derived farnesyl diphosphate synthase and each of the initiating substrates 1 to 4, the compound represented by the formula (F), the compound represented by the formula (I), the compound represented by the formula (QO), and geranyl diphosphate (GPP) whose structure is shown below. The results were indicated in Table 11 by the relative activity of the enzyme on the initiating substrates 1 to 4, the compound represented by the formula (F), the compound represented by the formula (I), and the compound represented by the formula (Q) with the activity of the enzyme on geranyl diphosphate as 100.
as §3

Where [14] appears, read: activity of the enzyme on farnesyl diphosphate as 100.
The mark [15] stands for this setting: activity of the enzyme on geranyl diphosphate as 100.

T8 sequence (O82827 whole entry N31A): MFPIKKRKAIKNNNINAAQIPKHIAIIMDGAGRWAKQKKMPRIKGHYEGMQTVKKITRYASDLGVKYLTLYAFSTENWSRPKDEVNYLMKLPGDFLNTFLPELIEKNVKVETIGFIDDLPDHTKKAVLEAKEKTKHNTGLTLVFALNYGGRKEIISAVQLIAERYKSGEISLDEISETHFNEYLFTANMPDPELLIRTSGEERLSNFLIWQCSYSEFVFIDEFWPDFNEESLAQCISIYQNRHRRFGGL
T5 sequence (O82827 whole entry L91K): as the sequence (O82827 whole entry N31A) above, with A31N, L91K counted along it
T10 sequence (O82827 whole entry L91N): as the sequence (O82827 whole entry N31A) above, with A31N, L91N counted along it
T3 sequence (O82827 whole entry): as the sequence (O82827 whole entry N31A) above, with A31N counted along it
T2 sequence (O82827 whole entry F95A): as the sequence (O82827 whole entry N31A) above, with A31N, F95A counted along it
T4 sequence (P39464 whole entry): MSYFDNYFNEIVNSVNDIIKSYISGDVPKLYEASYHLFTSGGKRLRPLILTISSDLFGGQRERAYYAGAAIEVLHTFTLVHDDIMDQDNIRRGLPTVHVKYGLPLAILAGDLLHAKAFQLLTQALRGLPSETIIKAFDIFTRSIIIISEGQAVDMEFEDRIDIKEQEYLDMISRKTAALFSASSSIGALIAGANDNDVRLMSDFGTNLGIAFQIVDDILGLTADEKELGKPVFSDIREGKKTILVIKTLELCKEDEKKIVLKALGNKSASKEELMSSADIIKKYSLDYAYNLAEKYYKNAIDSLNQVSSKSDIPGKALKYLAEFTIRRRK
T1 sequence (O82827 whole entry F95W): as the sequence (O82827 whole entry N31A) above, with A31N, F95W counted along it
T7 sequence (O82827 whole entry L91G): as the sequence (O82827 whole entry N31A) above, with A31N, L91G counted along it
T9 sequence (O82827 whole entry L91D): as the sequence (O82827 whole entry N31A) above, with A31N, L91D counted along it
T6 sequence (O82827 whole entry N77A): as the sequence (O82827 whole entry N31A) above, with A31N, N77A counted along it
T11 sequence (O82827 whole entry N31Q): as the sequence (O82827 whole entry N31A) above, with A31Q counted along it
T12 sequence (O82827 whole entry N77Q): as the sequence (O82827 whole entry N31A) above, with A31N, N77Q counted along it
T13 sequence (Q08291 whole entry): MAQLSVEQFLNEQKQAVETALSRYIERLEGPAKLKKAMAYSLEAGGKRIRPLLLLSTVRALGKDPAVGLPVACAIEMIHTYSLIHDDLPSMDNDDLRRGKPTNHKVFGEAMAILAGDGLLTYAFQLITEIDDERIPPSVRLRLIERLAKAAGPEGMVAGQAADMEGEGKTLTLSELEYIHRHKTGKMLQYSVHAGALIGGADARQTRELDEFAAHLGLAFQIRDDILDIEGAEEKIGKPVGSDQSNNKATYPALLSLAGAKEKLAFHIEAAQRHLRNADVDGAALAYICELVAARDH

For the molecule “7-acetyl-7-aza-3-methyl-dodeca-(2E)-dienyl diphosphate [Compound of formula (K)]”, the figures for the Relative activity in test [1], in test [2] and in [5] were 148, 136 and 112, respectively. The “Relative activity (%)” value is given as 40.6% in test [3] and 38.6% in [4] (setting [14]).
For the molecule `CCCCC(OC)/C(C)=C/CC/C(C)=C/COP(=O)(O)OP(=O)(O)O` (stereo not shown) [Compound of formula (B), 8-methoxy-3,7-dimethyl-dodeca-(2E,6E)-dienyl diphosphate], the Relative activity came out at 319 in [6]; 149 in test [7]; 116 in test [8]; 140 in [1]; 128 in test [2]; 156 in test [5]. In test [9], the Relative activity is on record as 231. The results for the “Relative activity (%)” value in [3] and in [4] (setting [14]) were 68.4% and 70.6%, respectively.
`CCCCC(O)/C(C)=C/CC/C(C)=C/COP(=O)(O)OP(=O)(O)O` (stereo not shown) [Compound of formula (C), 8-hydroxy-3,7-dimethyl-dodeca-(2E,6E)-dienyl diphosphate]: the Relative activity in test [10] came to 108; in [6], 234; in [7], 146; in test [8] it was 111; in test [5] it was 130; in test [9], 155. For the same molecule, the “Relative activity (%)” value is recorded as 74.8% in test [3] and 37.3% in test [4] (setting [14]).
As to `CC[C@H](O)CC/C(C)=C/CC/C(C)=C/COP(=O)(O)OP(=O)(O)O` [Compound of formula (D), (10S)-hydroxy-3,7-dimethyl-dodeca-(2E,6E)-dienyl diphosphate], the Relative activity is recorded as 103 in test [10]; 104 in test [11]; 208 in test [6]; 134 in test [7]; 179 in test [8]; 120 in test [1]. The Relative activity in [12] stood at 124; in test [5], 101; in test [9], 125.
As to `CC[C@@H](O)CC/C(C)=C/CC/C(C)=C/COP(=O)(O)OP(=O)(O)O` [Compound of formula (E), (10R)-hydroxy-3,7-dimethyl-dodeca-(2E,6E)-dienyl diphosphate], the Relative activity in [10] stood at 271; in test [11], 210; in test [6], 396; in test [7], 170; in [8], 222; in [1], 114. Further, the Relative activity is 194 in [12], 120 in test [2], 163 in test [5] and 320 in test [9].
Turning to `COCOC/C(C)=C/CC/C(C)=C/COP(=O)(O)OP(=O)(O)O` [Compound of formula (H), 8-methoxymethoxy-3,7-dimethyl-octa-(2E,6E)-dienyl diphosphate], the Relative activity in test [11] is listed as 110; in [6], 162; in [8] it was 152.
Regarding `CCCSC/C(C)=C/CC/C(C)=C/COP(=O)(O)OP(=O)(O)O` [Compound of formula (M), 8-n-propylthio-3,7-dimethyl-octa-(2E,6E)-dienyl diphosphate], the Relative activity in test [10] is 139; in test [11] it was 101; in test [6], 127; in test [8] it was 149; in test [5], 112; in [9] it was 123.
Take `C/C(=C\COP(=O)(O)OP(=O)(O)O)CC/C=C(\C)COCc1ccccc1` [Compound of formula (N), 8-benzyloxy-3,7-dimethyl-octa-(2E,6E)-dienyl diphosphate]: the Relative activity in test [6] worked out at 112; in test [1] it was 147; in test [12], 133; in test [2], 132.
Consider `C/C(=C\COP(=O)(O)OP(=O)(O)O)CC/C=C(\C)CO[Si](C)(C)C(C)(C)C` [Compound of formula (P), 8-[(tert-butyldimethylsilyl)oxy]-3,7-dimethyl-octa-(2E,6E)-dienyl diphosphate], for which the Relative activity in [7] came to 104; in [1] it was 130; in test [2], 104; in test [9] it was 112.
`CCC(O)CC/C(C)=C/CC/C(C)=C/COP(=O)(O)OP(=O)(O)O` [Compound of formula (R), 10-hydroxy-3,7-dimethyl-dodeca-(2E,6E)-dienyl diphosphate]: the Relative activity in test [10] worked out at 137; in test [11], 146; in test [6], 254; in test [7], 110; in [8], 200; in test [1], 121. The Relative activity in [12] is reported as 156; in test [2] it was 140; in test [5], 165; in test [9], 230.
As to `CCC(CC/C(C)=C/CC/C(C)=C/COP(=O)(O)OP(=O)(O)O)C(C)=O` [Compound of formula (S), 10-acetyl-3,7-dimethyl-dodeca-(2E,6E)-dienyl diphosphate], the Relative activity worked out at 130 in test [7]; 116 in test [8]; 130 in [1]; 163 in [2]; 147 in test [5]; 227 in test [9].
`C/C=C/COP(=O)(O)OP(=O)(O)O` [Initiating substrate 1, 2E-butenyl diphosphate]: the “Relative activity (%)” value in test [13] is 1.4%; in [3], 0.3%; in [4] (setting [14]), 2.3%; in test [4] (setting [15]), 0.4%.
The like results for `CC(C)=CCC/C=C/COP(=O)(O)OP(=O)(O)O` [Initiating substrate 2, 7-methyl-octa-2E,6E-dienyl diphosphate] were, in that order, 3.2%, 0.6%, 2.5% and 0.4%.
